Apoptosis rate data for 1 molecule are collected here from patent US12220437B2, “Oncolytic virus improved in safety and anticancer effect” (BIONOXX INC., priority 2017, dated 2025).

One experiment concerns A549 cells. The experiment can be described thus: Annexin V/PI staining, flow cytometry (FACS). The class given is cell-based, human. How it is done: (§1) In addition, the apoptosis and necrosis according to the combined administration of OTS-412 and GCV were confirmed by flow cytometry (FACS). Specifically, A549 and NCI-H460 cell lines were treated with GCV alone, OTS-412 alone, or a combination of OTS-412 and GCV, respectively, and the cells were subjected to Annexin V/PI staining followed by flow cytometry. At this time, the viability of cell was determined based on the facts that: both Annexin V and PI are negative in living cells; Annexin V is positive in the early stage of apoptosis, wherein the permeability of cell membrane changes; and both Annexin V and PI are positive at the end of apoptosis, wherein the nucleus is exposed by destruction of the cell membrane.

A further experiment relates to NCI-H460 cells. As to the kind of experiment: Annexin V/PI staining, flow cytometry (FACS). The experiment is classed as cell-based, human. On the procedure:
as §1

Regarding `Nc1nc2c(ncn2COC(CO)CO)c(=O)[nH]1` [GCV, ganciclovir], the apoptosis rate entry in the experiment on A549 cells and in the experiment with NCI-H460 cells was “not confirmed” each time.
